This note sets out measurements from US10166218B2, “3-(1H-indol-2-yl)-1H-pyrazolo[3,4-C]pyridines and therapeutic uses thereof” (Samumed, LLC, priority 2015, dated 2019).

Common to all, as to assay type: cell-based
Assay [1] relates to Wnt activity (Sp5-Luc reporter, TCF/LEF binding sites) in SW480 colon carcinoma cells. Kind of assay: Screening assay for Wnt activity: Sp5-Luc reporter gene assay in stably transduced SW480 cells. As to conditions: Homo sapiens, overnight incubation. The source says:
The screening assay for Wnt activity is described as follows. Reporter cell lines can be generated by stably transducing cancer cell lines (e.g., colon cancer) or primary cells (e.g., IEC-6 intestinal cells) with a lentiviral construct that includes a Wnt-responsive promoter driving expression of the firefly luciferase gene.
SW480 colon carcinoma cells were transduced with a lentiviral vector expressing luciferase with a human Sp5 promoter consisting of a sequence of eight TCF/LEF binding sites. SW480 cells stably expressing the Sp5-Luc reporter gene and a hygromycin resistance gene were selected by treatment with 150 μg/mL of hygromycin for 7 days. These stably transduced SW480 cells were expanded in cell culture and used for all further screening activities. Each compound was dissolved in DMSO as a 10 mM stock and used to prepare compound source plates. Serial dilution (1:3, 10-point dose-response curves starting from 10 μM) and compound transfer was performed using the ECHO 550 (Labcyte, Sunnyvale, Calif.) into 384-well white solid bottom assay plates (Greiner Bio-One) with appropriate DMSO backfill for a final DMSO concentration of 0.1%. For Sp5-Luc reporter gene assays, the cells were plated at 4,000 cells/well in 384-well plates with medium containing 1% fetal bovine serum and incubated overnight at 37° C. and 5% CO2. Following incubation, 20 μl of BrightGlo luminescence reagent (Promega) was added to each well of the 384-well assay plates. The plates were placed on an orbital shaker for 2 min and then luminescence was quantified using the Envision (Perkin Elmer) plate reader. Readings were normalized to DMSO only treated cells, and normalized activities were utilized for EC50 calculations using the dose-response log (inhibitor) vs. response-variable slope (four parameters) nonlinear regression feature available in GraphPad Prism 5.0 (or Dotmatics). For EC50 of >10 μM, the percent inhibition at 10 μM is provided.
For orientation: Reporter assays use an easily measured gene product as a stand-in for the process of interest.

The next assay concerns SW480 colon cancer cells. Kind of assay: Cell viability assay (CellTiter-Blue) in SW480 colon cancer cells. The note with it: Homo sapiens, 96 h, four days, CellTiter-Blue. Here is the method: Representative compounds were screened using the following assay procedure to assess the effect on cell viability as described below.
Each compound was dissolved in DMSO as a 10 mM stock and used to prepare compound source plates. Serial dilution (1:3, 8-point dose-response curves from 10 μM to 0.0045 μM) and compound transfer was performed using the ECHO 550 (Labcyte, Sunnyvale, Calif.) into 96-well clear bottom, black-walled plates (Corning-Costar).
Approximately 2×10^3 SW480 colon cancer cells were seeded into each well and allowed to incubate in the presence or absence of compound for four days at 37° C./5% CO2. Eight replicates of DMSO-treated cells served as controls and cells treated with compound were performed in duplicate.
After incubation, 20 μL of CellTiter-Blue (Promega) was added to each well allowed to incubate for approximately 3 hours. This reagent was a buffered solution which contains resazurin, metabolically active cells were able to reduce rezarurin (blue) into resorufin (pink) which was highly fluorescent. This measured fluorescence was used as a readout for cell viability.
After incubation, the plates were read at Ex 560 nm Em 590 nm (Cytation 3, BioTek). Dose-response curves were generated and EC50 concentration values were calculated using non-linear regression curve fit in the GraphPad Prism (San Diego, Calif.) or Dotmatics' Studies Software (Bishops Stortford, UK). For EC50 of >10 μM, the percent inhibition at 10 μM is provided.
Background: The colour change of resazurin is a common sign of viable cells or microbes.

In assay [2] the test system is primary human fibroblasts derived from IPF patients (LL29 cells) treated with TGF-β1; α-smooth muscle actin (αSMA). Kind of assay: Inhibition of the fibrotic process: αSMA staining in TGF-β1 treated primary human fibroblasts from IPF patients (LL29 cells). As to conditions: Fibroblast, 96 h, TGF-β1 20 ng/mL, 4 days, % cells positive for αSMA. The source says:
Representative compounds were screened using primary human fibroblasts (derived from IPF patients) treated with TGF-β1 to determine their ability to inhibit the fibrotic process.
Primary human fibroblasts derived from IPF patients (LL29 cells) [^1Xiaoqiu Liu, et. al., “Fibrotic Lung Fibroblasts Show Blunted Inhibition by cAMP Due to Deficient cAMP Response Element-Binding Protein Phosphorylation”, Journal of Pharmacology and Experimental Therapeutics (2005), 315(2), 678-687; ^2Watts, K. L., et. al., “RhoA signaling modulates cyclin D1 expression in human lung fibroblasts; implications for idiopathic pulmonary fibrosis”, Respiratory Research (2006), 7(1), 88] were obtained from American Type Culture Collection (ATCC) and expanded in F12 medium supplemented with 15% Fetal Bovine Serum and Penicillin/Streptomycin.
Each compound was dissolved in DMSO as a 10 mM stock and used to prepare compound source plates. Serial dilution (1:2, 11-point dose-response curves from 10 μM to 1.87 nM) and compound transfer was performed using the ECHO 550 (Labcyte, Sunnyvale, Calif.) into 384-well clear bottom assay plates (Greiner Bio-One) with appropriate DMSO backfill for a final DMSO concentration of 0.1%. LL29 cells are plated at 1,500 cells/well in 80 μL/well F12 medium supplemented with 1% Fetal Bovine Serum. One hour after addition of the cells, TGF-β1 (Peprotech; 20 ng/mL) was added to the plates to induce fibrosis (ref. 1 and 2 above). Wells treated with TGF-β1 and containing DMSO were used as controls. Cells were incubated at 37° C. and 5% CO2 for 4 days. Following incubation for 4 days, SYTOX green nucleic acid stain (Life Technologies [Thermo Fisher Scientific]) was added to the wells at a final concentration of 1 μM and incubated at room temperature for 30 min. Cells were then fixed using 4% formaldehyde (Electron Microscopy Sciences), washed 3 times with PBS followed by blocking and permeabilization using 3% Bovine Serum Albumin (BSA; Sigma) and 0.3% Triton X-100 (Sigma) in PBS. Cells were then stained with antibody specific to α-smooth muscle actin (αSMA; Abcam) (ref. 1 and 2 above) in 3% Bovine Serum Albumin (BSA; Sigma) and 0.3% Triton X-100 (Sigma) in PBS, and incubated overnight at 4° C. Cells were then washed 3 times with PBS, followed by incubation with Alexa Flor-647 conjugated secondary antibody (Life Technologies [Thermo Fisher Scientific]) and DAPI at room temperature for 1 hour. Cells were then washed 3 times with PBS and plates were sealed for imaging. αSMA staining was imaged by excitation at 630 nm and emission at 665 nm and quantified using the Compartmental Analysis program on the CellInsight CX5 (Thermo Scientific). Dead or apoptotic cells were excluded from analysis based on positive SYTOX green staining. % of total cells positive for αSMA were counted in each well and normalized to the average of 11 wells treated with TGF-β1 on the same plate using Dotmatics' Studies Software. The normalized averages (fold change over untreated) of 3 replicate wells for each compound concentration were used to create dose-responses curves and EC50 values were calculated using non-linear regression curve fit in the Dotmatics' Studies Software. For EC50 of >10 μM, the percent inhibition at 10 μM is provided.

For another assay, the system named is IL-6 (THP-1 cells). Kind of assay: Inhibition of IL-6 in LPS-stimulated THP-1 human monocyte cells (HTRF). As to conditions: inhibition of IL-6 in LPS-stimulated THP-1 cells, HTRF, 10-point dose-response starting from 10 μM. As to the method:
Human monocyte cell line (THP-1 cells; Catalog # TIB-202, ATCC, Manassas, Va.) were cultured in Roswell Park Memorial Institute (RPMI) 1640 Medium (Catalog #21870-100, Buffalo, N.Y.) with 1% L-glutamine, 1% HEPES, 1% Sodium Pyruvate, 2% Sodium Bicarbonate supplemented with 100 units/mL penicillin, 50 μg/mL streptomycin, 2-mercaptoethanol (0.05 mM) [basal medium] and 10% fetal bovine serum (Catalog #16140089, Life Technologies, Carlsbad, Calif.) at 37° C. and 5% CO2.
THP-1 cells were cultured in basal media with 1% FBS for 24 hours before the start of the assay. Each compound was dissolved in DMSO as a 10 mM stock and used to prepare compound source plates. Serial dilution (1:3, 10-point dose-response curves starting from 10 μM) and compound transfer was performed using the ECHO 550 (Labcyte, Sunnyvale, Calif.) into 384-well white low volume assay plates (Greiner Bio-One) with appropriate DMSO backfill for a final DMSO concentration of 0.1%. THP-1 cells were plated at 5000 cells/well in the 384-well plates and incubated at 37° C. for 2 h. 500 ng/mL of LPS was added after 2 hours and cells were incubated for another 22 hours at 37° C. Plates were spun in a centrifuge for 1 minute at […] and a mixture of anti-IL6 XL665, and anti-IL6 Cryptate diluted in reconstitution buffer (Cisbio Inc.) was added to each well. Following incubation for 3 hrs at room temperature, Homogeneous Time-Resolved Fluorescence (HTRF) was measured using the Envision (Perkin Elmer) at 665 nm and […]. The ratio of fluorescence at 665 nm to 620 nm was used as a readout for IL6 quantification. All samples were processed in duplicate. Readings were normalized to DMSO treated cells and normalized activities were utilized for EC50 calculations using the dose-response log (inhibitor) vs. response-variable slope (four parameters) nonlinear regression feature available in GraphPad Prism 5.0 (or Dotmatics). For EC50 of >10 μM, the percent inhibition at 10 μM is provided.
In general terms: In TR-FRET formats the signal depends on donor and acceptor labels being close together.

In general, EC50 refers to the concentration that produces a half-maximal response.

With `CCC(=O)Nc1cncc(-c2cc3c(-c4cc5c(-c6cccc(F)c6)cccc5[nH]4)n[nH]c3cn2)c1` [Compound 1, N-(5-(3-(4-(3-Fluorophenyl)-1H-indol-2-yl)-1H-pyrazolo[3,4-c]pyridin-5-yl)pyridin-3-yl)propionamide], the EC50 was 570 nM in assay [1], 4.07 µM in the assay on SW480 colon cancer cells, 529 nM in assay [2] and 2.92 µM in the assay with IL-6 (THP-1 cells).

In the case of `CN(C)Cc1cncc(-c2cc3c(-c4cc5c(-c6cccc(F)c6)cccc5[nH]4)n[nH]c3cn2)c1` [Compound 13, 1-(5-(3-(4-(3-Fluorophenyl)-1H-indol-2-yl)-1H-pyrazolo[3,4-c]pyridin-5-yl)pyridin-3-yl)-N,N-dimethylmethanamine], the EC50 in assay [1] worked out at 1350 nM; in the assay on SW480 colon cancer cells, 4.93 µM; in assay [2], 2200 nM; in the assay with IL-6 (THP-1 cells), 7.52 µM.

Take `CC(C)(C)CC(=O)Nc1cncc(-c2cc3c(-c4cc5c(-c6cccc(F)c6)cccc5[nH]4)n[nH]c3cn2)c1` [Compound 16, N-(5-(3-(4-(3-Fluorophenyl)-1H-indol-2-yl)-1H-pyrazolo[3,4-c]pyridin-5-yl)pyridin-3-yl)-3,3-dimethylbutanamide]: the EC50 is 1970 nM in assay [1], 3.92 µM in the assay with SW480 colon cancer cells, 640 nM in assay [2] and 1.87 µM with IL-6 (THP-1 cells).

For the molecule `Fc1cccc(-c2cccc3[nH]c(-c4n[nH]c5cnc(-c6cncc(CN7CCC(F)(F)C7)c6)cc45)cc23)c1` [Compound 26, 5-(5-((3,3-Difluoropyrrolidin-1-yl)methyl)pyridin-3-yl)-3-(4-(3-fluorophenyl)-1H-indol-2-yl)-1H-pyrazolo[3,4-c]pyridine], the EC50 was determined as 1030 nM in assay [1], 3.95 µM in the assay with SW480 colon cancer cells, 92 nM in assay [2] and 3.09 µM in the assay on IL-6 (THP-1 cells).

On to `Fc1cccc(-c2cccc3[nH]c(-c4n[nH]c5cnc(-c6ccccn6)cc45)cc23)c1` [Compound 28, 3-(4-(3-Fluorophenyl)-1H-indol-2-yl)-5-(pyridin-2-yl)-1H-pyrazolo[3,4-c]pyridine], for which the EC50 in assay [1] was 2240 nM; in the assay with SW480 colon cancer cells it was 3.53 µM; in assay [2], 1180 nM; in the assay with IL-6 (THP-1 cells) it was 3.6 µM.

As for `CC(C)(C)C(=O)Nc1cncc(-c2cc3c(-c4cc5c(-c6ccc(F)cc6)cccc5[nH]4)n[nH]c3cn2)c1` [Compound 36, N-(5-(3-(4-(4-Fluorophenyl)-1H-indol-2-yl)-1H-pyrazolo[3,4-c]pyridin-5-yl)pyridin-3-yl)pivalamide], the EC50 in assay [1] stood at 872 nM; in the assay on SW480 colon cancer cells, 5.96 µM; in assay [2], 1010 nM; with IL-6 (THP-1 cells), 1.63 µM.

As for `Fc1ccccc1-c1cccc2[nH]c(-c3n[nH]c4cnc(-c5cccnc5)cc34)cc12` [Compound 60, 3-(4-(2-Fluorophenyl)-1H-indol-2-yl)-5-(pyridin-3-yl)-1H-pyrazolo[3,4-c]pyridine], the EC50 was determined as 740 nM in assay [1], 0.909 µM in the assay with SW480 colon cancer cells, 90 nM in assay [2] and 2.57 µM with IL-6 (THP-1 cells).

Regarding `CC(C)Nc1cncc(-c2cc3c(-c4cc5c(-c6ccccc6F)cccc5[nH]4)n[nH]c3cn2)c1` [Compound 68, 5-(3-(4-(2-Fluorophenyl)-1H-indol-2-yl)-1H-pyrazolo[3,4-c]pyridin-5-yl)-N-isopropylpyridin-3-amine], the EC50 in assay [1] is 494 nM; with SW480 colon cancer cells it was 1.61 µM; in assay [2], 215 nM; in the assay on IL-6 (THP-1 cells), 3.1 µM.

In the case of `CC(C)(C)CC(=O)Nc1cncc(-c2cc3c(-c4cc5c(-c6ccccc6F)cccc5[nH]4)n[nH]c3cn2)c1` [Compound 72, N-(5-(3-(4-(2-Fluorophenyl)-1H-indol-2-yl)-1H-pyrazolo[3,4-c]pyridin-5-yl)pyridin-3-yl)-3,3-dimethylbutanamide], the EC50 stood at 1700 nM in assay [1], 4.43 µM with SW480 colon cancer cells, 701 nM in assay [2] and 3.21 µM in the assay on IL-6 (THP-1 cells).
